pEC50, pIC50: −log10 of the molar value. Read-outs that look alike come from different tables or passages of the source.
Experiments:
[1] = biological target: T1, HSV-1 ribonucleotide reductase (Human herpesvirus 1, UniProt P08543); assay: Inhibition of Herpes Simplex Virus (HSV-1) ribonucleotide reductase; format: biochemical
T1 construct: HSV-1 ribonucleotide reductase (partially purified) was obtained from quiescent BHK-21/C13 cells infected with strain F HSV-1 virus; made in house; host or cells: quiescent BHK-21/C13 cells infected with HSV-1 strain F (virus-encoded enzyme, partially purified)
Description: Inhibition of Herpes Simplex Virus (HSV-1) Ribonucleotide Reductase
• a) Preparation of Enzyme HSV-1 ribonucleotide reductase (partially purified) was obtained from quiescent BHK-21/C13 cells infected with strain F HSV-1 virus at 10 plaque forming units/cell as described by E.A. Cohen et al., J. Gen. Virol., 66, 733 (1985). • b) Assay and Results for Exemplified Peptides By following the procedure described by P. Gaudreau et al., J. Biol, Chem., 262, 12413 (1987), the assay results listed in the following Table I were obtained. The assay result for each exemplified compound of formula 1 is expressed as the concentration of the compound producing 50% of the maximal inhibition (IC50) of enzyme activity. The number of units of the enzyme preparation used in each assay was constant, based on the specific activity of the enzyme preparation. The results are relative to the activity obtained in control experiments without the test compound and represent the mean of four assays that varied less than 10% with each other.

[2] = system: HSV-2; assay: Inhibition of Herpes Simplex Virus (HSV-2) replication in cell culture; format: cell-based
Experimental: Inhibition of Herpes Simplex Virus (HSV-2) Replication in Cell Culture
BHK-21/C13 cells (ATCC CCL 10) are incubated for two days in 150 cm^2 T-flasks (1.5 x 10^6 cells/flask) with alpha-MEM medium (Gibco Canada Inc., Burlington, Ontario, Canada) supplemented with 8% (v/v) fetal bovine serum (FBS, Gibco Canada Inc.). The cells are trypsinized and then transferred to fresh media in a 24 well plate to give 2.5 x 10^5 cells in 750 µL of media per well. The cells are incubated at 37° for a period of 6 h to allow them to adhere to the plate. Thereafter, the cells are washed once with 500 µL of alpha-MEM supplemented with 0.5% (v/v) FBS and then incubated with 750 µL of the same media (low serum) for 3 days. After this period of serum starvation, the low serum medium is removed and the cells are incubated in 500 µL of BBMT for 2 to 3 hours. {BBMT medium is described by P. Brazeau et al., Proc. Natl. Acad. Sci. USA, 79, 7909 (1982).} Thereafter, the cells are infected with HSV-2 (multiplicity of infection = 0.02 PFU/cell) in 100 µL of BBMT medium. (Note: The HSV-2 used was strain HG-52, see Y. Langelier and G. Buttin, J. Gen. Virol., 57, 21 (1981); the virus was stored at -80°.) Following 1 h of virus adsorption at 37°, the media is removed and the cells are washed with BBMT (3 X 250 µL). The cells in each well are incubated with or without (control) appropriate concentrations of the test agent dissolved in 200 µL of BBMT medium. After 29 h of incubation at 37°, the infected cells are harvested by first freezing the plate at -80°, followed by thawing. The cells in each well are scraped off the surface of the well with the help of the melting ice fragments. After complete thawing, the cell suspensions are collected and each well is rinsed with 150 µL of BBMT medium. The viral sample (suspension plus washing) is sonicated gently for 4 min at 4°. Cell debris are removed by centrifugation (1000 times gravity for 10 minutes at 4°). The supernatant is collected and stored at -80° until determination of viral titer.
Viral titration was performed by a modification of the colorimetric assay method of M. Langlois et al., Journal of Biological Standardization, 14, 201 (1986).
More specifically, in a similar manner as described above, BHK-21/C13 cells are trypsinized and transferred to fresh media in a 96 well microtiter plate to give 20,000 cells in 100 µL of media per well. The cells in the prepared plate are incubated at 37° for 2 h. During that time, the viral sample is thawed and sonicated gently for 15 seconds, and log dilutions of the sample are prepared (1/5 sequential: 50 µL of the sample plus 200 µL of BBMT medium, sequential dilutions being done with a multichannel pipette.
On completion of the above 2 hour incubation of the BHK-21/C13 cells, the media is replaced with alpha-MEM medium supplemented with 3% (v/v) FBS. The cells are now ready to be infected with the various sample dilutions of virus. Aliquots (50 µL) of the various dilutions are transferred into the appropriate wells of the plate. The resulting infected cells are incubated for 2 days at 37°. Then 50 µL of a 0.15% (v/v) solution of neutral red dye in Hank's Balanced Salt Solution (pH 7.3, Gibco Canada Inc.) is added to each well. The prepared plate is incubated for 45 min at 37°. Medium from each well is then aspirated and the cells are washed once with 200 µL of Hank's Balanced Salt Solution. […]

[3] = Human alphaherpesvirus 2, Table IV, cell culture assay of example 11, read-out: EC50
[4] = Human alphaherpesvirus 2, BHK21 (C13), 29 h
[5] = Table I, partially purified enzyme from BHK-21/C13 cells infected with strain F HSV-1, mean of four assays
[6] = Human alphaherpesvirus 2, BHK21 (C13), 29 h, Table II, BHK-21/C13 cells, HSV-2 strain HG-52, 0.02 PFU/cell, 29 h incubation, read-out: EC50

T1 sequence (P08543 whole entry): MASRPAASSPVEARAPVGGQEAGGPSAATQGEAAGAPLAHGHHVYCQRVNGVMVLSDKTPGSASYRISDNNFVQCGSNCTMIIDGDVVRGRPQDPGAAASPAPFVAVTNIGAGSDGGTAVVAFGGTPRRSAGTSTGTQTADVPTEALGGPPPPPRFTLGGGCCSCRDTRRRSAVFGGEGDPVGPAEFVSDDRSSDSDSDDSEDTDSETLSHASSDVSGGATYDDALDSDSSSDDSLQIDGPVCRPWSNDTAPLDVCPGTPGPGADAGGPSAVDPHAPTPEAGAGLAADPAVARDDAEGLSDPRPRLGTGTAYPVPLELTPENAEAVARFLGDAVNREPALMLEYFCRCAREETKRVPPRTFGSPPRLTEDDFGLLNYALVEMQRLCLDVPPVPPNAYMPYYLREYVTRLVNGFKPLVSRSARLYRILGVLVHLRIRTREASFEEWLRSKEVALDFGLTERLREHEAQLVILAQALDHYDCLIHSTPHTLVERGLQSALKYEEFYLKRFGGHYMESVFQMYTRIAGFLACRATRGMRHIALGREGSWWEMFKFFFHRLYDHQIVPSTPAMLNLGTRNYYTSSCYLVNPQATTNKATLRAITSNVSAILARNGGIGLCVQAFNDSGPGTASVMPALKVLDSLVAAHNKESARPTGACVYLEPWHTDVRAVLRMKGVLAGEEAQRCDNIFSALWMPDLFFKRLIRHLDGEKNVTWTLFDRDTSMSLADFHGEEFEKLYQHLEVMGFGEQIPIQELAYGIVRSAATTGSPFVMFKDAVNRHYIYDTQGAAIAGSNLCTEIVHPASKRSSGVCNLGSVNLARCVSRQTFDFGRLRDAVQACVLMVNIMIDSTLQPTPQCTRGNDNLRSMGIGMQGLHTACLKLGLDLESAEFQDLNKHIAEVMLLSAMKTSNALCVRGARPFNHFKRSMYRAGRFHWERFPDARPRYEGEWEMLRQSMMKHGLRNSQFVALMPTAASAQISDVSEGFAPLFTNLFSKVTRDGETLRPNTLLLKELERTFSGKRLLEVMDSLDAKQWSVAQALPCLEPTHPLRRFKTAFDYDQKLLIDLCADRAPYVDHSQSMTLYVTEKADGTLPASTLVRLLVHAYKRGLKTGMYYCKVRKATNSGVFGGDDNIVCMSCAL

CCCC(CCC)NC(=O)NC(C(=O)CC(CC(=O)C(C)(C)C)C(=O)NC(C(=O)NCC(C)CC)C1(C(=O)O)CCCC1)C(C)(C)C [Pr2CHNHC(O) / NHCH2-(R,S)-CH(Me)Et, Pr2CHNHC(O)-Tbg-CH2-(R)-CH(CH2C(O)CMe3)C(O)-Asp(cyPn)-NHCH2-(R,S)-CH(Me)Et]
pIC50 ([1]; Table IV, assay of example 10): 6.54 | pEC50 [2, 3]: 4.30

CCCC(CCC)NC(=O)NC(C(=O)CC(CC(=O)C(C)(C)C)C(=O)NC(C(=O)NC1CCCC1(C)C)C1(C(=O)O)CCCC1)C(C)(C)C [Pr2CHNHC(O)-Tbg-CH2-(R)-CH(CH2C(O)CMe3)C(O)-Asp(cyPn)-NH-(2,2-dimethyl-cyclopentyl)]
pIC50 ([1]; Table IV, assay of example 10): 6.42 | pEC50 [2, 3]: 4.51

CC(C)[C@@H](C(=O)N[C@H](C(=O)C[C@@H](CC(=O)C(C)(C)C)C(=O)N[C@H](C(=O)N[C@@H](CC(C)(C)C)C(N)=O)C1(C(=O)O)CCCC1)C(C)(C)C)N(C)C(=O)CCc1ccccc1 [PhCH2CH2C(O)-(N-Me)Val-Tbg-CH2-(R)-CH(CH2C(O)CMe3)C(O)-Asp(cyPn)-γMeLeu-NH2]
pEC50 [2, 4]: 4.22

CCCC(CCC)NC(=O)NC(C(=O)CC(CC(=O)C(C)(C)C)C(=O)NC(C(=O)NC1CCCCC1C)C1(C(=O)O)CCCC1)C(C)(C)C [Pr2CHNHC(O)-Tbg-CH2-(R)-CH(CH2C(O)CMe3)C(O)-Asp(cyPn)-trans-NH-(2-methyl-cyclohexyl)]
pIC50 ([1]; Table IV, assay of example 10): 6.16

CCCC(CCC)NC(=O)NC(C(=O)CC(CC(=O)C(C)(C)C)C(=O)NC(C(=O)NCC(C)(C)C)C1(C(=O)O)CCCC1)C(C)(C)C [Pr2CHNHC(O)-Tbg-CH2-(R)-CH(CH2C(O)-CMe3)C(O)-Asp(cyPn)-NHCH2CMe3]
pIC50 [1, 5]: 7.10 | pEC50 [2, 6]: 4.62

CC(C)C(C(=O)NC(C(=O)CC(CC(=O)C(C)(C)C)C(=O)NC(C(=O)NCC(C)(C)C)C1(C(=O)O)CCCC1)C(C)(C)C)N(C)C(=O)CCc1ccccc1 [PhCH2CH2C(O)-(N-Me)Val-Tbg-CH2-(R)-CH(CH2C(O)CMe3)C(O)-Asp(cyPn)-NHCH2CMe3]
pIC50 [1, 5]: 6.48

CCCC(CC)(CCC)NC(=O)N[C@H](C(=O)C[C@@H](CC(=O)C(C)(C)C)C(=O)N[C@H](C(=O)NCC(C)(C)C)C1(C(=O)O)CCCC1)C(C)(C)C [EtPr2CNHC(O) / NHCH2CMe3, EtPr2CNHC(O)-Tbg-CH2-(R)-CH(CH2C(O)CMe3)C(O)-Asp(cyPn)-NHCH2CMe3]
pEC50 [2, 3]: 4.80

Nc1nc2c(ncn2COCCO)c(=O)[nH]1 [acyclovir, reference compound]
pEC50 ([2]; Human alphaherpesvirus 2, BHK21 (C13), Table III, agent alone, BHK-21/C13 cells, HSV-2 strain HG-52, read-out: EC50): 5.46 | action of the combination of acyclovir and the peptide of formula 1 ([2]; combination of acyclovir with the title peptide of example 6, EC50's lower than acyclovir alone, isobole method, Figure 1): synergistic action

CC(C)[C@@H](C(=O)N[C@H](C(=O)C[C@@H](CC(=O)C(C)(C)C)C(=O)N[C@H](C(=O)N[C@@H](CC(C)(C)C)C(=O)O)C1(C(=O)O)CCCC1)C(C)(C)C)N(C)C(=O)CCc1ccccc1 [PhCH2CH2C(O)-(N-Me)Val-Tbg-CH2-(R)-CH(CH2C(O)CMe3)C(O)-Asp(cyPn)-γMeLeu-OH]
pEC50 [2, 4]: 4.19

CCCC1(NC(=O)N[C@H](C(=O)C[C@@H](CC(=O)C(C)(C)C)C(=O)N[C@H](C(=O)NCC(C)(C)C)C2(C(=O)O)CCCC2)C(C)(C)C)CCCC1 [(1-propylcyclopentyl)aminocarbonyl-Tbg-CH2-(R)-CH(CH2C(O)CMe3)C(O)-Asp(cyPn)-NHCH2CMe3]
pEC50 [2, 6]: 4.40

CCCC(CCC)NC(=O)NC(C(=O)CC(CC(=O)C(C)(C)C)C(=O)NC(C(=O)NC1CCCCC1C)C1(C(=O)O)CCCC1)C(C)(C)C [Pr2CHNHC(O) / trans-NH-(2-methyl-cyclohexyl)] [Pr2CHNHC(O)-Tbg-CH2-(R)-CH(CH2C(O)CMe3)C(O)-Asp(cyPn)-trans-NH-(2-methyl-cyclohexyl)]
pEC50 ([2]; Table IV, cell culture assay of example 11, read-out: EC50): 4.22

CCC(CC)NC(=O)NC(C(=O)CC(CC(=O)C(C)(C)C)C(=O)NC(C(=O)NCC(C)(C)C)C(C)C(=O)O)C(C)(C)C [Et2CHNHC(O)-Tbg-CH2-(R)-CH(CH2C(O)-CMe3)C(O)-Asp{(R)-Me}-NHCH2CMe3]
pIC50 [1, 5]: 6.70

CCC(CC)NC(=O)NC(C(=O)CC(CC(=O)C(C)(C)C)C(=O)NC(C(=O)NC(CO)CC(C)(C)C)C1(C(=O)O)CCCC1)C(C)(C)C [Title Compound of Example 7, Et2CHNHC(O)-Tbg-CH2-(R)-CH(CH2C(O)CMe3)CO-Asp(cyPn)-γMeLeucinol]
pIC50 [1, 5]: 6.82

CC(C)C(C(=O)NC(C(=O)CC(CC(=O)C1CCCC1)C(=O)NC(C(=O)NCC(C)(C)C)C1(C(=O)O)CCCC1)C(C)(C)C)N(C)C(=O)CCc1ccccc1 [PhCH2CH2C(O)-(N-Me)Val-Tbg-CH2-(R)-CH{CH2C(O)-(cyclopentyl)}C(O)-Asp-(cyPn)-NHCH2CMe3]
pIC50 [1, 5]: 6.49

CCCC(CCC)NC(=O)N[C@H](C(=O)C[C@@H](CC(=O)C1CCCC1)C(=O)N[C@H](C(=O)NCC(C)(C)C)C1(C(=O)O)CCCC1)C(C)(C)C [Pr2CHNHC(O)-Tbg-CH2-(R)-CH{CH2C(O)(cyclopentyl)}C(O)-Asp(cyPn)-NHCH2CMe3]
pEC50 [2, 6]: 4.52

CCCC(CCC)NC(=O)NC(C(=O)CC(CC(=O)C(C)(C)C)C(=O)NC(C(=O)NC(CC(C)(C)C)C(=O)O)C1(C(=O)O)CCCC1)C(C)(C)C [Pr2CHNHC(O)-Tbg-CH2-(R)-CH(CH2C(O)-CMe3)C(O)-Asp(cyPn)-γMeLeu-OH]
pIC50 [1, 5]: 6.82

CCC(CC)NC(=O)NC(C(=O)CC(CC(=O)C(C)(C)C)C(=O)NC(C(=O)NC(CC(C)(C)C)C(=O)O)C1(C(=O)O)CCCC1)C(C)(C)C [Et2CHNHC(O)-Tbg-CH2-(R)-CH(CH2C(O)-CMe3)C(O)-Asp(cyPn)-γMeLeu-OH]
pIC50 [1, 5]: 6.92

Pr2CHNHC(O)-Tbg-CH2-(R)-CH-(CH2C(O)CH2CMe3)C(O)-Asp(cyPn)-Leu-OH
pEC50 ([2]; Table V, cell culture assay of example 11, read-out: EC50): 4.10

CC(C)[C@@H](C(=O)N[C@H](C(=O)C[C@@H](CC(=O)C(C)(C)C)C(=O)N[C@H](C(=O)N[C@H](CO)CC(C)(C)C)C1(C(=O)O)CCCC1)C(C)(C)C)N(C)C(=O)CCc1ccccc1 [Title Compound of Example 6, PhCH2CH2C(O)-(N-Me)Val-Tbg-CH2(R)-CH(CH2C(O)CMe3)C(O)-Asp(cyPn)-γMeLeucinol]
pEC50 ([2]; Human alphaherpesvirus 2, BHK21 (C13)): 4.72 | pEC50 [2, 4]: 4.82

CCC(CC)NC(=O)NC(C(=O)CC(CC(=O)C(C)(C)C)C(=O)NC(C(=O)NC(CC(C)(C)C)C(N)=O)C1(C(=O)O)CCCC1)C(C)(C)C [Et2CHNHC(O)-Tbg-CH2-(R)-CH(CH2C(O)-CMe3)C(O)-Asp(cyPn)-γMeLeu-NH2]
pIC50 [1, 5]: 6.66

CC(C)C(C(=O)NC(C(=O)CC(CC(=O)C(C)(C)C)C(=O)NC(C(=O)NCC(C)(C)C)C(C)C(=O)O)C(C)(C)C)N(C)C(=O)CCc1ccccc1 [PhCH2CH2C(O)-(N-Me)Val-Tbg-CH2-(R)-CH(CH2C(O)CMe3)C(O)-Asp{(R)-Me}-NHCH2CMe3]
pIC50 [1, 5]: 6.48
